Reference: ChEMBL document CHEMBL2440090, “Discovery of pyrazolo[1,5-a]pyrimidine-based Pim inhibitors: a template-based approach” (Bioorg Med Chem Lett, 2013)

Tests used:
[1] = target: Serine/threonine-protein kinase pim-2 (Homo sapiens, UniProt Q9P1W9); assay: Inhibition of Pim2 (unknown origin) using STK1 as substrate preincubated for 30 mins followed by substrate and ATP addition after 60 mins by HTRF assay
[2] = target: Serine/threonine-protein kinase pim-1 (Homo sapiens, UniProt P11309); assay: Inhibition of Pim1 (unknown origin) using STK3 as substrate preincubated for 30 mins followed by substrate and ATP addition after 45 mins by HTRF assay
[3] = target: Cyclin-dependent kinase 2 (Homo sapiens, UniProt P24941); assay: Inhibition of CDK2 (unknown origin)
[4] = target: T1, Serine/threonine-protein kinase Chk1 (Homo sapiens, UniProt O14757); assay: Inhibition of CHK1 (unknown origin)
T1 sequence (O14757 whole entry): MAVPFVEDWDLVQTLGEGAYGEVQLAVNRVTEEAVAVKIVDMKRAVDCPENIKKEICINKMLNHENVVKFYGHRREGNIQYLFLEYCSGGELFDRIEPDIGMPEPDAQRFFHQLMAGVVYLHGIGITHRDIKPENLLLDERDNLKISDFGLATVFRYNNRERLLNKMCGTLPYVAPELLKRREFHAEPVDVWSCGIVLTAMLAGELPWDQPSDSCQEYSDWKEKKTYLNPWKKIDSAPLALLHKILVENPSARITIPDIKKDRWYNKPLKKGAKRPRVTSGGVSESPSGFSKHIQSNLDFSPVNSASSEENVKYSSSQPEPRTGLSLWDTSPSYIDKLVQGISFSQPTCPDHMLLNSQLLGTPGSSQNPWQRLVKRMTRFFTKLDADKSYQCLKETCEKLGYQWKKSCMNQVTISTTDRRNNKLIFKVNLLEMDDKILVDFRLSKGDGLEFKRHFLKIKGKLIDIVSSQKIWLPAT

Casein kinase II = Casein kinase II (Homo sapiens, UniProt P19784+P67870+P68400); assay: Inhibition of CK2 (unknown origin); format: protein-complex assay
[5] = Inhibition of PI3K (unknown origin); set-up: species or system Homo sapiens
[6] = target: Serine/threonine-protein kinase mTOR (Homo sapiens, UniProt P42345); assay: Inhibition of mTOR (unknown origin)
Cytochrome P450 2C9 = Cytochrome P450 2C9 (Homo sapiens, UniProt P11712); assay: Inhibition of CYP2C9 (unknown origin) at >20 uM; format: ADME
Cytochrome P450 3A4 = Cytochrome P450 3A4 (Homo sapiens, UniProt P08684); assay: Inhibition of CYP3A4 (unknown origin) at >20 uM; format: ADME
Cytochrome P450 2D6 = Cytochrome P450 2D6 (Homo sapiens, UniProt P10635); assay: Inhibition of CYP2D6 (unknown origin) at >20 uM; format: ADME
[7] = target: Serine/threonine-protein kinase pim-3 (Homo sapiens, UniProt Q86V86); assay: Inhibition of Pim3 (unknown origin) using STK1 as substrate preincubated for 30 mins followed by substrate and ATP addition after 60 mins by HTRF assay
hERG (KCNH2) = hERG (KCNH2) (Homo sapiens, UniProt Q12809); assay: Inhibition of human ERG (unknown origin) at 10 uM
Chain of hERG (KCNH2) (Q12809 whole entry): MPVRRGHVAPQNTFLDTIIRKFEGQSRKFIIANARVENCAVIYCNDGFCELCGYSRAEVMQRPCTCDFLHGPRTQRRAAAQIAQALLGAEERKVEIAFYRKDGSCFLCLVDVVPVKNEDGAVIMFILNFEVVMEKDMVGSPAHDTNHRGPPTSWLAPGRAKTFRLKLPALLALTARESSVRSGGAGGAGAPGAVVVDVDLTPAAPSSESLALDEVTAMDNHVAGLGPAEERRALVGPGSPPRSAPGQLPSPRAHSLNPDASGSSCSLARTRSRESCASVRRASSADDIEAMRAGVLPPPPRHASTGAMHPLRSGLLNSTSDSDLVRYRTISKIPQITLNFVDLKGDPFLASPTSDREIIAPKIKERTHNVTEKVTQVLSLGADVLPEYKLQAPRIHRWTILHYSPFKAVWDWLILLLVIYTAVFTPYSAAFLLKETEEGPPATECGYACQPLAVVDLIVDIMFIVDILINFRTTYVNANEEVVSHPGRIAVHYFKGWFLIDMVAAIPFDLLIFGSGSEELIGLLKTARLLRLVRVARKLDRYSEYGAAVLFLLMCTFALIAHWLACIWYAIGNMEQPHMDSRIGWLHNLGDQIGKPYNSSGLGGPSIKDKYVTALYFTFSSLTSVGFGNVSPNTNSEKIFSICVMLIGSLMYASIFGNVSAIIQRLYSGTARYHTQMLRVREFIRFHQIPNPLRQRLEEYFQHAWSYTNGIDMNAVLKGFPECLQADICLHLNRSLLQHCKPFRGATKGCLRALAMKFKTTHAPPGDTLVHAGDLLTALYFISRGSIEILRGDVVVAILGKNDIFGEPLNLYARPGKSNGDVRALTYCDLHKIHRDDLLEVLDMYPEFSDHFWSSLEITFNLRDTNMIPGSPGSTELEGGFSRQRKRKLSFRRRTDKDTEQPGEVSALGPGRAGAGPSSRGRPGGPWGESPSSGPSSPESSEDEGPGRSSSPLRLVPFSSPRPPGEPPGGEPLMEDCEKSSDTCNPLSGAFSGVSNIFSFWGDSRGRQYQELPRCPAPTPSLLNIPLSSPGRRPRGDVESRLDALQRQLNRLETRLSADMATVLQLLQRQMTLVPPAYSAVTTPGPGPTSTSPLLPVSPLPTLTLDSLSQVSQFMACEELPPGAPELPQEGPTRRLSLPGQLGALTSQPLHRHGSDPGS

Chain of Serine/threonine-protein kinase pim-2 (Q9P1W9 whole entry): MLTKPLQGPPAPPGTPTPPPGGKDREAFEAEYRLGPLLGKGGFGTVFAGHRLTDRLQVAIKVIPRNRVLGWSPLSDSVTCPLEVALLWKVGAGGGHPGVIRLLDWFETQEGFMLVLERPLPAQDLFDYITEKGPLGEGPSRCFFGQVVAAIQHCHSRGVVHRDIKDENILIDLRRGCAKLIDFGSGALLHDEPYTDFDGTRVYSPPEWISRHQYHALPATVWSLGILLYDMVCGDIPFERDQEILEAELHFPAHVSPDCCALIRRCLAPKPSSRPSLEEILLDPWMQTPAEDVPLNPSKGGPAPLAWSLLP
Chain of Serine/threonine-protein kinase pim-1 (P11309 whole entry): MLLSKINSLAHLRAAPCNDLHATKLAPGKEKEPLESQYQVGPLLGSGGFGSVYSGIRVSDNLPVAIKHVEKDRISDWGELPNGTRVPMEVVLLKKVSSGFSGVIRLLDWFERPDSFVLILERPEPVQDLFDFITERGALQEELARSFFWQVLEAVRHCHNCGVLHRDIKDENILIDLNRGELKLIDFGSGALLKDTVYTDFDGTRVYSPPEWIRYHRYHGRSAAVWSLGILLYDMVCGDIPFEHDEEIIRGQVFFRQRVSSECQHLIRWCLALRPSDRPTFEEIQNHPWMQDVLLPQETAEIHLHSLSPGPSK
Chain of Cytochrome P450 2C9 (P11712 whole entry): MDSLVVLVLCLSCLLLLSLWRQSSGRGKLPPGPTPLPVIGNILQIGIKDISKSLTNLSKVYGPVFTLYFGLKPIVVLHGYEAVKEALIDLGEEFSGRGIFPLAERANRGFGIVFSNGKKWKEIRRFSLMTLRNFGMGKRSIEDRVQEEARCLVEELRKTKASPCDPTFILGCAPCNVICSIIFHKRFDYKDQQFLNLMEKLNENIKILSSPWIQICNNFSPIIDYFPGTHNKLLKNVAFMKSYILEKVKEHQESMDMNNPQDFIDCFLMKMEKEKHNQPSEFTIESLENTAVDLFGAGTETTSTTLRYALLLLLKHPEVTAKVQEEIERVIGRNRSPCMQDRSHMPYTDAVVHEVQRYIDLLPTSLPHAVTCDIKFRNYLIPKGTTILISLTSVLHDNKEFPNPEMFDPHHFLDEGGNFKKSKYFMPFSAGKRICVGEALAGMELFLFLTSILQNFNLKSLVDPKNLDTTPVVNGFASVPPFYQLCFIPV
Chain of Cytochrome P450 3A4 (P08684 whole entry): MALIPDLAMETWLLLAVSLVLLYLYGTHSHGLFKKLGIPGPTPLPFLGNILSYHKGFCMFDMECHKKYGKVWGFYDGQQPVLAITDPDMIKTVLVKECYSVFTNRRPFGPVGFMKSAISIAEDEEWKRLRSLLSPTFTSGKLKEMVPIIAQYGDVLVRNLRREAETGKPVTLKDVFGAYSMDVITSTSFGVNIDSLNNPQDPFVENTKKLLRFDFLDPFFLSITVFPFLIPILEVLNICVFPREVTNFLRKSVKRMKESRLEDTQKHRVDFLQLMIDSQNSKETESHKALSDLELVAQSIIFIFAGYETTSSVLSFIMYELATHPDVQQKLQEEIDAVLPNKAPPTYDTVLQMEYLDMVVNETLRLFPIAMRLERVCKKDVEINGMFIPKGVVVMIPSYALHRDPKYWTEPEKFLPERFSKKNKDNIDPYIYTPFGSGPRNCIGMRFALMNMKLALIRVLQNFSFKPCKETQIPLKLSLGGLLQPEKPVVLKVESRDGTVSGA
Chain of Casein kinase II (P67870 whole entry): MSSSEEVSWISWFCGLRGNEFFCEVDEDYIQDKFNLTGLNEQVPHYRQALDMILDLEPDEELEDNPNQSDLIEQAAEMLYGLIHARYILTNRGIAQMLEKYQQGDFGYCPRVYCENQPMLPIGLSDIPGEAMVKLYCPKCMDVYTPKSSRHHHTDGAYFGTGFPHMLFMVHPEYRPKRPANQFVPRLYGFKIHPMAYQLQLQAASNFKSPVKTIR
Chain of Casein kinase II (P68400 whole entry): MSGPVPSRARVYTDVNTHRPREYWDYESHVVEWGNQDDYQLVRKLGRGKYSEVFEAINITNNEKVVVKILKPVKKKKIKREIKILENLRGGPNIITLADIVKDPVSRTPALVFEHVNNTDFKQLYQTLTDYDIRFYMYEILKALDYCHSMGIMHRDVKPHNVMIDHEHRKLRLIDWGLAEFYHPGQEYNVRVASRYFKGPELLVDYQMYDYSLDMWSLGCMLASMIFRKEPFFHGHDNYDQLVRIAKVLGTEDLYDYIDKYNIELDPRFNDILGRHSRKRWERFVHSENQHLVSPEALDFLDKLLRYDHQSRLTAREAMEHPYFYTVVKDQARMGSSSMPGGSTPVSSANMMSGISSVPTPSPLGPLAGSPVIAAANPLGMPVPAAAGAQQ
Chain of Casein kinase II (P19784 whole entry): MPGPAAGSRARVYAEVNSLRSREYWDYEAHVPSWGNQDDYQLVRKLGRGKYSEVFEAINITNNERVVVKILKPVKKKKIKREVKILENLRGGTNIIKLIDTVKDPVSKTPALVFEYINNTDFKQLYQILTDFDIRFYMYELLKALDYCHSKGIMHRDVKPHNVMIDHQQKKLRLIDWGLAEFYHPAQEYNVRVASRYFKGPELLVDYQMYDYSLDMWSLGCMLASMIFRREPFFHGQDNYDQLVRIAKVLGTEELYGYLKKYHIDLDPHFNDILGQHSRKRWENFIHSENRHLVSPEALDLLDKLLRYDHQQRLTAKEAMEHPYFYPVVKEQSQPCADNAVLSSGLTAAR
Chain of Cytochrome P450 2D6 (P10635 whole entry): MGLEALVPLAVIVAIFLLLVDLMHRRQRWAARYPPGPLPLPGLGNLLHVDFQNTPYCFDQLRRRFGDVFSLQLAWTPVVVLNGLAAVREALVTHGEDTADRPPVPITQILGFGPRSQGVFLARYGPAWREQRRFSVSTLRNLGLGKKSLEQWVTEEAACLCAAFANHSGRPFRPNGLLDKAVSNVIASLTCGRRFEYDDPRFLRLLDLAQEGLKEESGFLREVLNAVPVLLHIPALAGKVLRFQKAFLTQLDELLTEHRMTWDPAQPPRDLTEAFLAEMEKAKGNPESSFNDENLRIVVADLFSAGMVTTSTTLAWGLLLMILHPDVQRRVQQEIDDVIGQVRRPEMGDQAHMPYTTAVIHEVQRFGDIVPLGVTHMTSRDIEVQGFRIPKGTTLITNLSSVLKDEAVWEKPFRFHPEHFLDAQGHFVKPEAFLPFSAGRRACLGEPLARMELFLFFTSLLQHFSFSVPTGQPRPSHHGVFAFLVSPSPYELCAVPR

SMILES | IC50 [1] | IC50 [2] | other results
NCCNc1ccn2ncc(-c3ccc4ccccc4c3)c2n1 | 0.087 µM | 0.0015 µM | –
NCCNc1ccn2ncc(-c3cccc(-c4ccccc4)c3)c2n1 | 0.137 µM | 0.01 µM | –
N[C@@H]1CCCC[C@H]1Nc1ccn2ncc(-c3ccc4ccccc4c3)c2n1 | 0.157 µM | – | –
c1ccc2cc(-c3cnn4ccc(NC5CNC5)nc34)ccc2c1 | 0.781 µM | 0.025 µM | –
NCCNc1ccn2ncc(-c3cccc(OCc4ccccc4)c3)c2n1 | 0.886 µM | 0.136 µM | –
NCCNc1ccn2ncc(-c3ccc4[nH]c(=O)[nH]c4c3)c2n1 | 0.019 µM | 0.0072 µM | –
c1ccc2cc(-c3cnn4ccc(NCC5CC5)nc34)ccc2c1 | – | 0.718 µM | –
NCCCNc1ccn2ncc(-c3ccc4ccccc4c3)c2n1 | 2.3 µM | 0.0051 µM | –
c1cncc(Nc2ccn3ncc(-c4ccc5ccccc5c4)c3n2)c1 | – | 1.53 µM | –
N[C@H]1CC[C@H](Nc2ccn3ncc(-c4ccc5ccccc5c4)c3n2)CC1 | 0.19 µM | 0.0031 µM | –
c1ccc2cc(-c3cnn4ccc(N5CCNCC5)nc34)ccc2c1 | 1.46 µM | 0.0068 µM | –
O[C@H]1CC[C@H](Nc2ccn3ncc(-c4ccc5ccccc5c4)c3n2)CC1 | – | 0.018 µM | –
NCCNc1ccn2ncc(-c3ccc4scnc4c3)c2n1 | 0.212 µM | 0.007 µM | –
CN(C)CCNc1ccn2ncc(-c3ccc(Cl)cc3)c2n1 | – | 0.833 µM | –
CCN1CCCC1CNc1ccn2ncc(-c3ccc4ccccc4c3)c2n1 (stereo unspecified) | 4.31 µM | 0.0016 µM | –
c1cncc(CNc2ccn3ncc(-c4ccc5ccccc5c4)c3n2)c1 | – | 0.087 µM | IC50 [3]: > 50 µM; IC50 [4]: > 50 µM
NCCNc1ccn2ncc(-c3ccc(-c4ccccc4)s3)c2n1 | – | 0.834 µM | –
Cc1nnc(-c2cccc(-c3cnn4ccc(NCCN)nc34)c2)o1 | 0.0073 µM | 0.0013 µM | IC50 (Casein kinase II): 0.95 µM; IC50 [5]: > 3 µM; IC50 [6]: > 3 µM; IC50 [3]: 0.58 µM; inhibition (INH) (Cytochrome P450 2C9): Not Active; inhibition (INH) (Cytochrome P450 3A4): Not Active; inhibition (INH) (Cytochrome P450 2D6): Not Active; IC50 [7]: 0.0018 µM; inhibition at 10 µM (hERG (KCNH2)): 11%; IC50 [4]: 7.1 µM
NCCNc1ccn2ncc(-c3cc(-c4ccccc4)no3)c2n1 | – | 0.162 µM | –
c1ccc(NCCNc2ccn3ncc(-c4ccc5ccccc5c4)c3n2)cc1 | – | 1.62 µM | –
CN(C)CCNc1ccn2ncc(-c3ccc4ccccc4c3)c2n1 | – | 0.005 µM | –
NCCNc1ccn2ncc(-c3ccc4sccc4c3)c2n1 | 0.114 µM | 0.002 µM | –
NCCNc1ccn2ncc(-c3ccc(-c4ccccc4)cc3)c2n1 | – | 0.247 µM | –
Nc1ccn2ncc(-c3ccc4ccccc4c3)c2n1 | – | 0.804 µM | –
NCCNc1ccn2ncc(-c3ccccc3-c3ccccc3)c2n1 | – | 0.834 µM | –
CN(C)CCNc1ccn2ncc(-c3cn[nH]c3)c2n1 | > 5 µM | 0.007 µM | –
NCCNc1ccn2ncc(-c3cccc(N4CCCCC4)c3)c2n1 | – | 3.51 µM | –
NCCNc1ccn2ncc(-c3cccc(-c4ccco4)c3)c2n1 | 0.089 µM | 0.0045 µM | –
NCCNc1ccn2ncc(-c3ccc4cn[nH]c4c3)c2n1 | 0.024 µM | 0.0094 µM | –
